Measured values reported in ChEMBL document CHEMBL3779814, “6-O-Nucleotidyltransferase: an aminoglycoside-modifying enzyme specific for streptomycin/streptidine” (2016).
≈ marks a conversion by molar mass, not a printed value. Calls of active or inactive are those of the source. The rule behind the calls is not given here.

Columns and labels:
[1] = test system: Bacillus subtilis; test: Activity of Bacillus subtilis N-terminal His-tagged ANT(6) expressed in Escherichia coli BL21(DE3) cells assessed as adenylated product by Michaelis-Menten kinetics
[2] = test system: Bacillus subtilis; test: Activity of Bacillus subtilis N-terminal His-tagged ANT(6) expressed in Escherichia coli BL21(DE3) cells assessed as ratio of Kcat to Km of adenylated product by Michaelis-Menten kinetics
[3] = test system: Escherichia coli; test: Antibacterial activity against Escherichia coli incubated for 12 hrs; format: functional
[4] = test system: Escherichia coli; test: Antibacterial activity against Escherichia coli BL21(DE3) expressing Bacillus subtilis N-terminal His-tagged ANT(6) incubated for 12 hrs; format: functional
[5] = test system: Escherichia coli; test: Antibacterial activity against Escherichia coli BL21(DE3) harboring pET plasmid incubated for 12 hrs; format: functional
[6] = test system: Escherichia coli; test: Antibacterial activity against Escherichia coli in presence of streptidine; format: functional
[7] = test system: Serratia marcescens; test: Activity of Serratia marcescens ANT(3'')-1i/AAC(6')-2d expressed in Escherichia coli BL21(DE3) cells assessed as ratio of Kcat to Km of ANT(3'')-1i domain catalysed adenylated product by steady state kinetic analysis
[8] = test system: Escherichia coli; test: Antibacterial activity against Escherichia coli BL21(DE3); format: functional
[9] = test system: Escherichia coli; test: Antibacterial activity against Escherichia coli BL21(DE3) expressing ANT(6); format: functional
[10] = test system: Escherichia coli; test: Antibacterial activity against Escherichia coli BL21(DE3) harboring pET plasmid incubated for 12 hrs in presence of 2-deoxystreptidine; format: functional
[11] = test system: Escherichia coli; test: Antibacterial activity against Escherichia coli BL21(DE3) harboring pET plasmid in streptidine; format: functional
[12] = test system: Escherichia coli; test: Antibacterial activity against Escherichia coli BL21(DE3) expressing Bacillus subtilis N-terminal His-tagged ANT(6) incubated for 12 hrs in presence of 2-deoxystreptidine; format: functional
[13] = test system: Escherichia coli; test: Antibacterial activity against Escherichia coli; format: functional
[14] = test system: Escherichia coli; test: Antibacterial activity against Escherichia coli BL21(DE3) expressing Bacillus subtilis N-terminal His-tagged ANT(6) in presence of streptidine; format: functional
[15] = test system: Escherichia coli; test: Antibacterial activity against Escherichia coli incubated for 12 hrs in presence of 2-deoxystreptidine; format: functional

With `Nc1ncnc2c1ncn2[C@@H]1O[C@H](COP(=O)(O)OP(=O)(O)O)[C@@H](O)[C@H]1O` the Activity [1] was “inactive”.

With `Nc1ncnc2c1ncn2[C@@H]1O[C@H](COP(=O)(O)OP(=O)(O)OP(=O)(O)O)[C@@H](O)[C@H]1O` the Activity [1] was “Active”, the Km [1] was 84 µM and the kcat [1] was 0.018 s⁻¹. The kcat/Km [2] was 2.1 ×10² /s/M.

In the case of `Nc1nc2c(ncn2[C@@H]2O[C@H](COP(=O)(O)OP(=O)(O)OP(=O)(O)O)[C@@H](O)[C@H]2O)c(=O)[nH]1`, the Activity [1] is reported as “Active”.

In the case of `N[C@@H]1C[C@H](N)[C@@H](O)[C@H](O)[C@H]1O`, the MIC90 [3] is reported as greater than 100 µg/mL and the MIC90 [4] is reported as greater than 100 µg/mL.

`N=C(N)N[C@@H]1[C@@H](O)[C@H](NC(=N)N)[C@@H](O)[C@H](O)[C@H]1O` was tested, and the MIC90 [5] was greater than 100 µg/mL, the MIC90 [3] was greater than 100 µg/mL and the Km [1] was 600 µM. It also gave a kcat [1] of 0.0006 s⁻¹, an MIC90 [4] greater than 200 µg/mL and a kcat/Km [2] of 1.2 M⁻¹ s⁻¹.

`Nc1ncnc2c1ncn2[C@@H]1O[C@H](COP(=O)(O)O)[C@@H](O)[C@H]1O` was tested, and the Activity [1] was “inactive”.

In the case of `O=c1ccn([C@@H]2O[C@H](COP(=O)(O)OP(=O)(O)OP(=O)(O)O)[C@@H](O)[C@H]2O)c(=O)[nH]1`, the Activity [1] is reported as “Active”.

With `Nc1ncnc2c1ncn2[C@@H]1O[C@H](COP(=O)(O)CP(=O)(O)OP(=O)(O)O)[C@@H](O)[C@H]1O` the Activity [1] was “inactive”.

In the case of `NC[C@H]1O[C@H](O[C@H]2[C@H](O[C@@H]3O[C@H](CO)[C@@H](O)[C@H]3O)[C@@H](O)[C@H](N)C[C@@H]2N)[C@H](N)[C@@H](O)[C@@H]1O`, the Activity [1] is reported as “inactive”.

With `Nc1ccn([C@@H]2O[C@H](COP(=O)(O)OP(=O)(O)OP(=O)(O)O)[C@@H](O)[C@H]2O)c(=O)n1` the Activity [1] was “Active”.

Molecule `CN[C@@H]1[C@H](O[C@H]2[C@H](O[C@H]3[C@H](O)[C@@H](O)[C@H](N=C(N)N)[C@@H](O)[C@@H]3N=C(N)N)O[C@@H](C)[C@]2(O)C=O)O[C@@H](CO)[C@H](O)[C@H]1O` [STREPTOMYCIN] has an MIC90 [6] of 5 µg/mL, a kcat/Km [7] of 3.2 ×10⁵ /s/M and an MIC90 [8] of 5 µg/mL (≈ 8.6 µM). It also gave an MIC90 [9] greater than 200 µg/mL, an MIC90 [10] of 100 µg/mL and an MIC90 [11] of 5 µg/mL (≈ 8.6 µM). For the same molecule, the MIC90 [12] was 100 µg/mL, the Km [1] was 38 µM and the kcat [1] was 0.03 s⁻¹. The MIC90 [13] was 5 µg/mL (≈ 8.6 µM), the MIC90 [14] was 10 µg/mL and the MIC90 [15] was 2 µg/mL. It also gave a kcat/Km [2] of 9.2 ×10² /s/M.

In the case of `NC[C@H]1O[C@H](O[C@H]2[C@H](O)[C@@H](O[C@H]3O[C@H](CO)[C@@H](O)[C@H](N)[C@H]3O)[C@H](N)C[C@@H]2N)[C@H](O)[C@@H](O)[C@@H]1O`, the Activity [1] is reported as “inactive”.
